Assay results taken from patent US8748339B2, “Synergistic fungicidal mixtures” (priority 2008, dated 2014).
Like-named read-outs stand apart in the source and are kept apart here.

What was measured:
Type in all cases: cell-based
[1] = tested on: Pyrenophora teres; test: Activity against Pyrenophora teres in the microtiter test (Pyrnte); conditions: single active compound, day 7 after inoculation
[2] = tested on: Phytophthora infestans; conditions: single active compound, 7 days after inoculation
[3] = tested on: Fusarium culmorum; test: Activity against Fusarium culmorum in the microtiter test (Fusacu); conditions: single active compound, day 7 after inoculation
[4] = tested on: Septoria tritici; test: Activity against leaf blotch on wheat caused by Septoria tritici in the microtiter test (Septtr); conditions: single active compound, day 7 after inoculation

Compound: COC=C(C(=O)OC)c1ccccc1COc1cccc(C(F)(F)F)n1 [Picoxystrobin, methyl 3-methoxy-2-[2-(6-trifluoromethylpyridin-2-yloxymethyl)phenyl]-acrylate]
- Observed efficacy [%] ([1]; 0.016 ppm): 31%

Compound: CCO[PH](=O)O [Fosetyl-Al]
- Observed efficacy [%] ([2]; 16 ppm): 35%

Compound: COC(=O)N(OC)c1ccccc1COc1ccn(-c2ccc(Cl)cc2)n1 [Pyraclostrobin, methyl N-{2-[1-(4-chlorophenyl)-1H-pyrazol-3-yloxymethyl]phenyl}(N-methoxy)carbamate]
- Observed efficacy [%] ([3]; 0.25 ppm): 5%

Compound: C=CCSC(=O)n1c(N)c(-c2ccccc2C)c(=O)n1C(C)C [I.1, 5-amino-2-isopropyl-3-oxo-4-o-tolyl-2,3-dihydro-pyrazole-1-carbothioic acid ally ester]
- Observed efficacy [%] ([2]; 16 ppm): 16%
- Observed efficacy [%] ([2]; 63 ppm): 37%
- Observed efficacy [%] ([1]; 1 ppm): 34%
- Observed efficacy [%] ([3]; 63 ppm): 14%
- Observed efficacy [%] ([4]; 4 ppm): 37%

Compound: Cc1cc(C2CC2)nc(Nc2ccccc2)n1 [Cyprodinil, (4-cyclopropyl-6-methylpyrimidin-2-yl)phenylamine]
- Observed efficacy [%] ([4]; 1 ppm): 13%

Compound: N#Cc1c(Cl)c(Cl)c(Cl)c(C#N)c1Cl [Chlorothalonil, 2,4,5,6-tetrachloroisophthalonitrile]
- Observed efficacy [%] ([4]; 0.25 ppm): 46%

Compound: zinc propylenebis(dithiocarbamate) polymer [Propineb]
- Observed efficacy [%] ([2]; 1 ppm): 21%
